In this assay the target is T1, human PDE2A1 (Homo sapiens, UniProt O00408).
T1 construct: GST; purchased BPS Bioscience (San Diego, Calif.) 60020; host or cells: insect cells
T1 sequence (O00408 1-920 isoform O00408-2): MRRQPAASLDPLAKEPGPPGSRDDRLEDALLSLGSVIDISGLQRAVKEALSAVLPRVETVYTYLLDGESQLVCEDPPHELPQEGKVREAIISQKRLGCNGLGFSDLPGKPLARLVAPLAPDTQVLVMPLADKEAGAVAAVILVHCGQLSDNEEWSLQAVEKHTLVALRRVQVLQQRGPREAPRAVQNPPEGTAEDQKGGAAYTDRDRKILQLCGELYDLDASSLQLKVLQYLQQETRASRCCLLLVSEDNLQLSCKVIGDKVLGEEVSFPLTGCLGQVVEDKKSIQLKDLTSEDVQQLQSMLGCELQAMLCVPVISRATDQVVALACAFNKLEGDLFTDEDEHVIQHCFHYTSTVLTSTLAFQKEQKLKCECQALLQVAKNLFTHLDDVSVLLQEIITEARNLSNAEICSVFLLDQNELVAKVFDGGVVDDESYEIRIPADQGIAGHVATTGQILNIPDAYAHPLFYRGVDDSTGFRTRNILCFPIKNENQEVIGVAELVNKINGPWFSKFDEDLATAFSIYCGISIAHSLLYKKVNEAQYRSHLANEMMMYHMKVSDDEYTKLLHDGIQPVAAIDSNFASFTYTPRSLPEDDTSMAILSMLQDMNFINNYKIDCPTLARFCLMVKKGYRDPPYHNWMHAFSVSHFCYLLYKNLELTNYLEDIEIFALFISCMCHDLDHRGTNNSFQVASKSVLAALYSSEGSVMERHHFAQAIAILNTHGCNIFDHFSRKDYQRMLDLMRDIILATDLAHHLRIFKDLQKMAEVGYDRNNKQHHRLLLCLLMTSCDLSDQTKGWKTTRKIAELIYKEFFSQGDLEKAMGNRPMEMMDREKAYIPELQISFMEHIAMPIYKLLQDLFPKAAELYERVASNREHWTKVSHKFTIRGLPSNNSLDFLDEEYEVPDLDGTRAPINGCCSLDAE
The assay can be described thus: IMAP FP PDE selectivity panel, human PDE2A1. The assay is classed as biochemical. The following applies: Lab B; read-out: Human PDE2 Ki (nM) Lab B. Summed up: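 Human PDE2A1 tested alongside PDE1–11 by IMAP fluorescence polarization at room temperature. Substrate was 50 nM FAM-cAMP plus 1000 nM cGMP, buffer pH 7.2 with MgCl2 and DTT, enzyme set for 20% conversion. Ten 3-fold compound dilutions; 60 min reaction, then IMAP binding solution, 1 h, parallel/perpendicular fluorescence read.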
What is called Ki is a measure of affinity in units of concentration, obtained from inhibition or displacement. Regarding `CC(C)(O)[C@@H](Nc1cc(C(F)(F)F)nc2ncnn12)c1ccc(S(F)(F)(F)(F)F)cc1` (single isomer, unassigned) [Example 177], the Ki stood at 8.4 nM.

In the case of `CC(C)(O)C(Nc1cc(C(F)(F)F)nc2ncnn12)c1ccc2c(c1)OC(F)(F)O2` (single isomer, unassigned) [Example 167, (1S or R)-1-(2,2-Difluoro-1,3-benzodioxol-5-yl)-2-methyl-1-{[5-(trifluoromethyl) [1,2,4]triazolo [1,5-a]pyrimidin-7-yl]amino} propan-2-ol], the Ki is 184 nM. For the compound `Cc1cc(N[C@@H](c2ccc(C(F)(F)F)c(F)c2)C(C)(C)C)n2nc(CCCO)nc2n1` [Example 249, (R)-3-(7-(1-(3-Fluoro-4-(trifluoromethyl)phenyl)-2,2-dimethylpropylamino)-5-methyl-[1,2,4]triazolo[1,5-a]pyrimidin-2-yl)propan-1-ol], the Ki came to 40 nM. `CC(C)(O)[C@@H](Nc1cncc2ncnn12)c1ccc(OC(F)(F)F)c(F)c1` [Example 286, (1S)-1-[3-Fluoro-4-(trifluoromethoxy)phenyl]-2-methyl-1-([1,2,4]triazolo[1,5-a]pyrazin-5-ylamino)propan-2-ol]: the inhibition constant Ki was 209 nM.

Turning to `Cc1cc(NC(C)(C)c2ccc(C(F)(F)F)cc2)n2ncnc2n1` [Example 53, 5-Methyl-N-{1-methyl-1-[4-(trifluoromethyl)phenyl]ethyl} [1,2,4]triazolo[1,5-a]pyrimidin-7-amine], the inhibition constant (Ki) worked out at 99 nM. Take `Cc1cc(NC(c2ccc3c(c2)OC(F)(F)O3)C(C)(C)O)n2ncnc2n1` (single isomer, unassigned) [Example 112, (1S or R)-1-(2,2-Difluoro-1,3-benzodioxol-5-yl)-2-methyl-1-[(5-methyl[1,2,4]triazolo[1,5-a]pyrimidin-7-yl)amino]propan-2-ol]: the Ki is over 2960 nM. Consider `Cc1cc(NC(c2ccc(C(F)(F)F)cn2)C(C)C)n2ncnc2n1` (single isomer, unassigned) [Example 211, (R)- or (S)-5-Methyl-N-(2-methyl-1-(5-(trifluoromethyl)pyridin-2-yl)propyl)-[1,2,4] triazolo[1,5-a] pyrimidin-7-amine], for which the inhibition constant (Ki) is about 2480 nM. As for `CC(C)(O)C(Nc1cc(C(F)(F)F)nc2ncnn12)c1ccc(C(F)(F)F)c(F)c1` (single isomer, unassigned) [Example 214, (S)- or (R)-1-(3-Fluoro-4-(trifluoromethyl)phenyl)-2-methyl-1-(5-(trifluoromethyl)-[1,2,4]triazolo [1,5-a]pyrimidin-7-ylamino)propan-2-ol], the figure is 25 nM; as for `Cc1cc(N[C@@H](c2ccc(S(F)(F)(F)(F)F)cc2)C2CC2)n2ncnc2n1` [Example 37, N-{(1R)-Cyclopropyl[4-(pentafluoro-λ^6-sulfanyl)phenyl]methyl}-5-methyl[1,2,4]triazolo[1,5-a] pyrimidin-7-amine], 22 nM; as for `CC(C)(O)C(Nc1cc(C(F)F)nc2ncnn12)c1ccc(OC(F)F)c(F)c1` (single isomer, unassigned) [Example 190, (1R or S)-[4-(Difluoromethoxy)-3-fluorophenyl]-1-{[5-(difluoromethyl) [1,2,4]triazolo [1,5-a]pyrimidin-7-yl]amino}-2-methylpropan-2-ol], over 2960 nM. Then `Cc1cc(N[C@@H](c2ccc(C(F)(F)F)c(F)c2)C(C)(C)C)n2nc(CF)nc2n1` [Example 191, 2-(Fluoromethyl)-N-{(1R)-1-[3-fluoro-4-(trifluoromethyl)phenyl]-2,2-dimethylpropyl}-5-methyl[1,2,4]triazolo[1,5-a]pyrimidin-7-amine], with 67 nM; and `Cc1cc(N[C@@H](c2ccc(C(F)(F)F)c(F)c2)C(C)C)n2ncnc2n1` [Example 20, N-{(1R)-1-[3-Fluoro-4-(trifluoromethyl)phenyl]-2-methylpropyl}-5-methyl[1,2,4]triazolo[1,5-a] pyrimidin-7-amine], with 28 nM; and `OCc1cc(NC2(c3ccc(C(F)(F)F)c(F)c3)CC2)n2ncnc2c1` [Example 266, (5-((1-(3-Fluoro-4-(trifluoromethyl)phenyl)cyclopropyl)amino)-[1,2,4]triazolo[1,5-a]pyridin-7-yl)methanol], with 13 nM.

Take `Cc1cc(NC(C)(C)c2ccc(SC(F)(F)F)c(F)c2)n2ncnc2n1` [Example 50, N-(1-{3-Fluoro-4-[(trifluoromethyl)sulfanyl]phenyl}-1-methylethyl)-5-methyl[1,2,4]triazolo[1,5-a] pyrimidin-7-amine]: the inhibitory constant (Ki) is 182 nM. On to `CC(C)(O)C(Nc1cc(C(F)(F)F)nc2ncnn12)c1ccc(OC(F)(F)F)c(F)c1` (single isomer, unassigned) [Example 176, (1R or S)-1-[3-Fluoro-4-(trifluoromethoxy)phenyl]-2-methyl-1-{[5-(trifluoromethyl) [1,2,4]triazolo [1,5-a]pyrimidin-7-yl]amino} propan-2-ol], for which the Ki was about 1310 nM. Turning to `Cc1cc(NC(c2ccc(OC(F)(F)F)cc2F)C(C)(C)O)n2nc(C)nc2n1` (single isomer, unassigned) [Example 135, (1R or S)-1-[(2,5-Dimethyl[1,2,4]triazolo[1,5-a]pyrimidin-7-yl)amino]-1-[2-fluoro-4-(tri-fluoromethoxy)phenyl]-2-methylpropan-2-ol], the Ki turned out to be 30 nM. `CC(C)(O)[C@@H](Nc1cc(C(F)F)cc2ncnn12)c1ccc(S(F)(F)(F)(F)F)cc1` [Example 282, (1S)-1-{[7-(Difluoromethyl) [1,2,4]triazolo[1,5-a]pyridin-5-yl]amino}-2-methyl-1-[4-(pentafluoro-λ^6-sulfanyl)phenyl]propan-2-ol]: the Ki amounted to 7.8 nM.

With `Cc1cc(N[C@H](c2ccc(OC(F)(F)F)cc2)C(C)(C)O)n2ncnc2n1` [Example 97, (1R)-2-Methyl-1-[(5-methyl [1,2,4]triazolo[1,5-a]pyrimidin-7-yl)amino]-1-[4-(trifluoromethoxy)phenyl]propan-2-ol], the Ki is over 2960 nM. With `CCc1nc2nc(C)cc(NC3(c4ccc(C(F)(F)F)c(F)c4)CC3)n2n1` [Example 193, 2-Ethyl-N-(1-(3-fluoro-4-(trifluoromethyl)phenyl)cyclopropyl)-5-methyl-[1,2,4]triazolo [1,5-a]pyrimidin-7-amine], the Ki worked out at 142 nM.

On to `Cc1cc(NC2(c3ccc(C(F)(F)F)cc3)COC2)n2ncnc2n1` [Example 199, 5-Methyl-N-(3-(4-(trifluoromethyl)phenyl)oxetan-3-yl)-[1,2,4]triazolo [1,5-a]pyrimidin-7-amine], for which the Ki was determined as 167 nM. For the compound `COCC(Nc1cc(C(F)(F)F)nc2ncnn12)c1ccc(C(F)(F)F)c(F)c1` (single isomer, unassigned) [Example 218, (S)- or (R)-N-(1-(3-Fluoro-4-(trifluoromethyl)phenyl)-2-methoxyethyl)-5-(trifluoromethyl)-[1,2,4]triazolo [1,5-a]pyrimidin-7-amine], the Ki was over 2960 nM.

`Cc1cc(NC2(c3ccc(SC(F)(F)F)c(F)c3)CC2)n2ncnc2n1` [Example 63, N-(1-{3-Fluoro-4-[(trifluoromethyl)sulfanyl]phenyl}cyclopropyl)-5-methyl[1,2,4]triazolo[1,5-a] pyrimidin-7-amine]: the Ki was 33 nM. Turning to `Cc1cc(N[C@H](CC(C)(C)O)c2ccc(C(F)(F)F)c(F)c2)n2ncnc2n1` [Example 152, (4R)-4-[3-Fluoro-4-(trifluoromethyl)phenyl]-2-methyl-4-[(5-methyl[1,2,4]triazolo[1,5-a]pyrimidin-7-yl)amino]butan-2-ol], the inhibition constant Ki is 766 nM. As for `Cc1cc(N[C@@H](c2ccc(C3CC3)c(F)c2)C2CC2)n2ncnc2n1` [Example 38, N-[(R)-Cyclopropyl(4-cyclopropyl-3-fluorophenyl)methyl]-5-methyl[1,2,4]triazolo[1,5-a] pyrimidin-7-amine], the figure is 20 nM.
